For orientation: solubility means the concentration that dissolves in the medium under given conditions.

The record followed here is patent EP0156508A1, “Antifungal aerosol solution” (ORTHO PHARMACEUTICAL CORPORATION, priority 1984, dated 1985).

The series can be described thus: Solubility of miconazole nitrate in several common solvents. The format is physicochemical. An excerpt:
The imidazole ethers in general and the miconazoles in particular have very low solubilities in most solvents suitable for use in topical pharmaceutical compositions such as in the treatment of fungal skin infections. The solubility of miconazole nitrate, for example, in several common solvents has been determined to be as follows: […]

Molecules are shown by their SMILES. Read-outs that look alike come from different tables or passages of the source.

`Clc1ccc(COC(Cn2ccnc2)c2ccc(Cl)cc2Cl)c(Cl)c1.O=[N+]([O-])O` (stereo not drawn) [miconazole nitrate, 1-[2,4-dichloro-β-(2,4-dichlorobenzyloxy)-phenethyl] imidazole nitrate]: the solubility was 1300 µg/mL (Solvent: 40% PG/water, read-out: solubility); 500 µg/mL (Solvent: HCl 0.1 N, read-out: solubility); “Insoluble” (Solvent: NaOH); 300 µg/mL (Solvent: Water, read-out: solubility); 1300 µg/mL (organic solvent or mixture, Solvent: 2-Propanol, read-out: solubility); 3400 µg/mL (organic solvent or mixture, Solvent: Acetone, read-out: solubility). The solubility by setting is: (organic solvent or mixture, Solvent: Benzene, read-out: solubility) 500 µg/mL; (organic solvent or mixture, Solvent: Chloroform, read-out: solubility) 3100 µg/mL; (organic solvent or mixture, Solvent: Ethanol, read-out: solubility) 7600 µg/mL; (organic solvent or mixture, Solvent: Ethyl Acetate, read-out: solubility) 700 µg/mL; (organic solvent or mixture, Solvent: Hexane, read-out: solubility) 300 µg/mL; (organic solvent or mixture, Solvent: Methanol, read-out: solubility) 15000 µg/mL. For the same molecule, the solubility runs as follows: (organic solvent or mixture, Solvent: Methyl Isobutylketone, read-out: solubility) 400 µg/mL; (organic solvent or mixture, Solvent: PEG 300, read-out: solubility) 1300 µg/mL; (organic solvent or mixture, Solvent: Propylene Glycol, read-out: solubility) 1500 µg/mL; (organic solvent or mixture, Solvent: Tetrahydrofuran, read-out: solubility) 2000 µg/mL.
